{"source": "patent US12605451B2", "about": "“Targeted plasma protein degradation” (Novartis AG, priority 2020, dated 2026)", "key": {"FHR3": {"target": "T1, FHR3 (Homo sapiens, UniProt Q02985)", "T1 construct": "Purified FHR3 with C-terminal biotinylated Avitag was used for the assay", "T1 sequence (Q02985 19-330)": "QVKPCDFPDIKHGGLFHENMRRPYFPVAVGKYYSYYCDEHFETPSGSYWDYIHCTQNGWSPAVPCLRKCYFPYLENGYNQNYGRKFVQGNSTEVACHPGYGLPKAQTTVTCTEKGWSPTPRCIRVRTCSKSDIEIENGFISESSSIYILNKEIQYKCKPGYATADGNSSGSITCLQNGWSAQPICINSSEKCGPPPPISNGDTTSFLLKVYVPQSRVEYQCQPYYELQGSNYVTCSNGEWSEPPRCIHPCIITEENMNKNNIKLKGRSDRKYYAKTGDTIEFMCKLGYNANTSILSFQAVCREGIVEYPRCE", "test": "SPR binding to biotinylated FHR3 (Proteon XPR36)", "settings": "Bifunctional Compound", "description": "SPR was used to obtain the binding data for FHR3 receptor ligands compounds (C12), (C13), (C14), (C15) and (C16), either alone or as part of the bifunctional compounds (BFC13), (BFC14), (BFC15), (BFC16) and (BFC17), respectively.\nSPR Binding experiments were performed on a Proteon XPR36 instrument (Bio-Rad Laboratories). Purified FHR3 with C-terminal biotinylated Avitag was used for the assay. Biotinylated FHR3 was incubated with fivefold molar excess of bifunctional compounds (BFC13), (BFC14), (BFC15), (BFC16) or (BFC17), or compounds (C12), (C13), (C14), (C15) or (C16), and immobilized onto a Neutravidin coated sensor chip. (NLC chip, Bio-Rad Laboratories, Inc). […]\nTo perform sandwich SPR binding assays, His-ASGPR1 (62-291) protein stocks were diluted with running buffer to a desired concentration. […] Sensorgrams were recorded for association and dissociation phases. All sensorgrams were processed by subtracting the binding response recorded from a blank control surfaces (or interspot surfaces), followed by subtracting buffer blank injections from the reaction surface. […]"}, "human ASGPR1": {"target": "T2, human ASGPR1 (Homo sapiens, UniProt P07306)", "T2 construct": "Recombinant extracellular domain of human ASGPR1 with N-terminal biotinylated Avitag", "T2 sequence (P07306 62-291 limits assumed)": "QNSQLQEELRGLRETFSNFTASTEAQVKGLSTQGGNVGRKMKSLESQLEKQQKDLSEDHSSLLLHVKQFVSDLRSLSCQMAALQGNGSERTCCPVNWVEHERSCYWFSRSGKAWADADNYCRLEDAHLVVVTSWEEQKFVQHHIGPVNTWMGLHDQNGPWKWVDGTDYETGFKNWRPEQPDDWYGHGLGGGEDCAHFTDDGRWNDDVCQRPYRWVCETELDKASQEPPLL", "test": "ASGPR1 SPR direct binding (Biacore, SA chip)", "settings": "Bifunctional Compound (FHR3 series), Table 7, read-out: ASGRR KD", "description": "SPR was used to obtain the binding data for ASGP receptor ligand compound (int-CC2), either alone or as part of the bifunctional compounds (BFC-13), (BFC-15) and (BFC16).\n(§1) ASGPR1 SPR experiments were performed on either Biacore T200 or Biacore 8K. The assay was optimized for Biacore (Streptavidin) SA chip in running buffer consisting of 20 mM HEPES, 300 mM NaCl, 2 mM CaCl2, 0.01% tween-20, 2% DMSO, pH 7.4. Recombinant extracellular domain of human ASGPR1 with N-terminal biotinylated Avitag was diluted to 20 μg/mL in running buffer, and immobilized onto SA chip after it was preconditioned with at least four 60-second injections at 30 uL/min of 1 M NaCl/40 mM NaOH solution. Protein immobilization level varied from 500 RU to 3500 RU dependent on analytes' molecular weight, for targeted Rmax of 30 RUs. Direct binding of analytes to ASGPR1 was observed when a dose response titration of analytes in 2% DMSO was flown over the immobilized protein. Data analysis was done on either Biacore T200 Evaluation Software or Biacore Insight Evaluation Software.\nSPR was used to obtain the binding data for ASGP receptor ligand compounds (int-CC2), either alone or as part of the bifunctional compounds (BFC1).\nas §1, with “Biacore” for “Biacore (Streptavidin)”"}}, "note": "pKd: −log10 of the molar value."}
{"smiles": "CC(=O)N[C@H]1[C@H](OCCCCC(=O)NCCCNC(=O)CCOCC(COCCC(=O)NCCCNC(=O)CCCCO[C@@H]2O[C@H](CO)[C@H](O)[C@H](O)[C@H]2NC(C)=O)(COCCC(=O)NCCCNC(=O)CCCCO[C@@H]2O[C@H](CO)[C@H](O)[C@H](O)[C@H]2NC(C)=O)NC(=O)CCOCCOCCOCCOCCOCCOCCOCCOCCOCCC(=O)NCCCC[C@@H]2NC(=O)[C@H](Cc3ccc(O)cc3)NC(=O)[C@H](CC(N)=O)NC(=O)[C@H](C(C)C)NC(=O)[C@H](CO)NC(=O)[C@H](Cc3ccccc3)N(C)C(=O)[C@H](CCCNC(=N)N)NC(=O)[C@H](Cc3ccccc3)NC(=O)CSC[C@@H](C(=O)NCC(N)=O)NC(=O)[C@H](Cc3ccccc3)N(C)C(=O)[C@H](CC(N)=O)NC(=O)[C@@H]3Cc4ccccc4CN3C(=O)[C@H](CC(=O)O)NC(=O)[C@H](CCCNC(=N)N)NC2=O)O[C@H](CO)[C@H](O)[C@@H]1O", "note": "[BFC-15]", "values": [{"measurement": "pKd", "setting": "FHR3", "result": 6.52}, {"measurement": "pKd", "setting": "human ASGPR1", "result": 9.35}]}
